Laboratory results reported in US20230061083A1, “KRAS G12C INHIBITOR COMPOUND AND USE THEREOF” (Evopoint Biosciences Co., Ltd., priority 2019, published 2023).

Tests used:
[1] = target: KRAS G12C protein (GDP-KRAS-4B-G12C) (Homo sapiens, UniProt P01116, G12C); experiment: Assay for binding rate to KRAS G12C protein by LC-MS method; settings: 3 uM compound; for Binding rate to KRAS G12C protein (LC-MS POC, %) 3 uM/5 min: 5 min incubation at room temperature; for Binding rate to KRAS G12C protein (LC-MS POC, %) 3 uM/30 min: 30 min incubation at room temperature
Method: Assay for Binding Rate to KRAS G12C Protein by LC-MS Method
A 10 mM stock solution of a test compound in DMSO was prepared. […] An equal volume of GDP buffer (20 mM Hepes, pH 7.5, 50 mM NaCl, 0.5 mM MgCl2, 10 mM EDTA, 2 mM DTT, GDP) was added to prepare KRASG12C protein loaded with GDP.
After incubation at room temperature for 5 min and 30 min, the reaction was terminated by addition of 5 μL of 5% formic acid. After being centrifuged at 15,000 rpm for 10 min, the mixture was subjected to LC-MS analysis and data analysis.
The percent binding of a test compound to KRASG12C protein was calculated as: Percent binding to KRAS G12C (%)=peak height of conjugate of test compound and KRAS G12C protein/[peak height of conjugate of test compound and KRAS G12C protein+peak height of free KRAS G12C protein] x 100.

[2] = tested on: ERK phosphorylation in H358 cells; experiment: In-cell western blot assay for ERK phosphorylation in H358 cells; format: cell-based; settings: Homo sapiens, NCI-H358, 10000 nM to 0.051 nM, 3-fold dilution, read-out: H358 p-ERK IC50
Method: In-Cell Western Blot Assay for ERK Phosphorylation in H358 Cells
H358 cells were thawed and pre-cultured for 3 days to be in a good state (RPMI 1640+10% FBS+1% P/S). The cells were plated on to a 384-well plate, and a test compound, positive control compounds (AMG510 and isomers thereof) and a negative control were added. The compound was at concentrations from 10000 nM to 0.051 nM. 3-fold dilution was performed. The mixture was well mixed and incubated at 37° C. and 5% CO2. The cells were washed with PBS and suspended in methanol. After another washing with PBS, a blocking buffer was added. After 1 h of blocking at room temperature, a primary antibody mixture (rabbit anti pERK, mouse anti GAPDH) was added, followed by overnight incubation at 4° C. The cells were washed 3 times with PBST, and a secondary antibody mixture (goat anti rabbit 800CW and goat anti mouse 680RD) was added, followed by incubation at room temperature in the dark. The 384-well plate was reversed and centrifuged at 1000 rpm for 1 min, and read on an Odyssey CLx fluorescence imaging system for fluorescence signal values, which was corrected using DMSO and ARS1620. The specific calculation is as follows:
Relative Signal=Signal Value(total channel 800)/Signal Value(total channel 700)
Relative pERK=(Sample−Ave_L)/(Ave_H−Ave_L).
The IC50 values of the compounds were calculated using a four-parameter fitting algorithm, specifically as follows:
Y=Bottom+(Top−Bottom)/(1+10^((Log IC50−X)×HillSlope))

[3] = Plasma protein binding (PPB), RED plate dialysis, human plasma; format: in vitro ADME; settings: 1 μM, 37° C., 5 h, read-out: PPB (% free state) H
Method: (§1) Human (H), Rat (R) and Mouse (M) Plasma Protein Binding (PPB)
(§2) A test compound and a positive control were each mixed with blank plasma to a final concentration of 1 μM. The mixture was added to a RED plate plasma sample chamber, followed by addition of a dialysis buffer in the buffer chamber. The sample was prepared in triplicate for each compound. The chambers were sealed, and the plate was incubated at 37° C. with shaking at 60 rpm for 5 h. After incubation, the samples were transferred out of the plasma chamber and the buffer chamber and treated as shown in Table 5. After centrifugation at 5594 g for 15 min, the supernatant was collected and analyzed by LC/MS/MS.
(§3) The compound concentration in each sample was expressed in terms of the ratio between peak areas (ratio of peak area of compound to peak area of internal standard) by mass spectrometry analysis, and the plasma protein binding was calculated according to the following formulas.
(§4) % free state=(buffer chamber peak area ratio/plasma chamber peak area ratio)×100%
(§5) % bound state=100%−% free state

[4] = Plasma protein binding (PPB), RED plate dialysis, rat plasma; format: in vitro ADME; settings: 37° C., read-out: PPB (% free state) R
Method: as §1, §2, §3, §4, §5

[5] = Plasma protein binding (PPB), RED plate dialysis, mouse plasma; format: in vitro ADME; settings: 37° C., read-out: PPB (% free state) M
Method: as §1, §2, §3, §4, §5

plasma proteins = experiment: Plasma protein binding (PPB), RED plate dialysis, human plasma; format: in vitro ADME
Method: as §1, §2, §3, §4, §5

Row | Compound | IC50 [2] [nM] | fraction unbound at 5 h, 1 μM [3] | fraction unbound at 5 h, 1 μM [4] | fraction unbound at 5 h, 1 μM [5] | other results
1 | C=CC(=O)N1CCN(c2nc(=O)n(-c3c(C(C)C)ncnc3C(C)C)c3c2cc(F)c(-c2cc(F)ccc2O)[n+]3[O-])[C@@H](C)C1 [SZ-014044] | 145 |  |  |  | Binding rate to KRAS G12C protein (LC-MS POC, %) 3 uM/5 min [1]: 84.1%; Binding rate to KRAS G12C protein (LC-MS POC, %) 3 uM/30 min [1]: 97.2%
2 | C=CC(=O)N1CCN(c2nc(=O)n(-c3c(C)ccnc3CC)c3c2cc(F)c(-c2c(F)cccc2F)[n+]3[O-])[C@@H](C)C1 [SZ-014131] | 2090 |  |  |  | 
3 | C=C(F)C(=O)N1CCN(c2nc(=O)n(-c3c(C(C)C)ncnc3C(C)C)c3nc(-c4c(F)cccc4F)c(F)cc23)[C@@H](C)C1 [SZ-014137, reference compound] | 3540 | 0.076 | 0.114 | 0.005 | 
4 | C=CC(=O)N1CCN(c2nc(=O)n(-c3c(C)ccnc3C(C)C)c3c2cc(F)c(-c2ccccc2F)[n+]3[O-])[C@@H](C)C1 [SZ-014011A/B] | 405 |  |  |  | Binding rate to KRAS G12C protein (LC-MS POC, %) 3 uM/5 min [1]: 37.8%; Binding rate to KRAS G12C protein (LC-MS POC, %) 3 uM/30 min [1]: 75.5%
5 | C=CC(=O)N1CCN(c2nc(=O)n(-c3c(C(C)C)ncnc3C(C)C)c3nc(-c4c(F)cccc4F)c(F)cc23)[C@@H](C)C1 [SZ-014138, reference compound] | 34 | 0.129 | 0.203 | 0.011 | 
6 | C=CC(=O)N1CCN(c2nc(=O)n(-c3c(C(C)C)ncnc3C(C)C)c3c2cc(F)c(-c2ccccc2O)[n+]3[O-])[C@@H](C)C1 [SZ-014111A/B] | 31 |  |  |  | 
7 | C=CC(=O)N1CCN(c2nc(=O)n(-c3c(C(C)C)ncnc3C(C)C)c3c2cc(F)c(-c2c(F)cccc2Cl)[n+]3[O-])[C@@H](C)C1 [SZ-014082A/B] | 60 |  |  |  | 
8 | C=CC(=O)N1CCN(c2nc(=O)n(-c3c(C(C)C)ncnc3C(C)C)c3c2cc(F)c(-c2ccccc2)[n+]3[O-])[C@@H](C)C1 [SZ-014129] | 90 | 0.455 | 0.517 | 0.336 | molar concentration not bound to plasma proteins, times higher than reference compound SZ-014141 (plasma proteins; versus SZ-014141): no less than 10 times
9 | C=CC(=O)N1CCN(c2nc(=O)n(-c3c(C)ccnc3C(C)C)c3c2cc(F)c(-c2c(F)cccc2F)[n+]3[O-])[C@@H](C)C1 [SZ-014077A/B] | 191 |  |  |  | 
10 | C=CC(=O)N1CCN(c2nc(=O)n(-c3c(C(C)C)ncnc3C(C)C)c3c2cc(Cl)c(-c2ccccc2F)[n+]3[O-])[C@@H](C)C1 [SZ-014108A/B] | 9.4 |  |  |  | 
11 | C=CC(=O)N1CCN(c2nc(=O)n(-c3c(C(C)C)ncnc3C(C)C)c3c2cc(F)c(-c2c(F)cccc2F)[n+]3[O-])[C@@H](C)C1 [SZ-014053] | 41 | 0.587 | 0.616 | 0.377 | Binding rate to KRAS G12C protein (LC-MS POC, %) 3 uM/5 min [1]: 85.6%; Binding rate to KRAS G12C protein (LC-MS POC, %) 3 uM/30 min [1]: 100.0%; molar concentration not bound to plasma proteins, times higher than reference compound SZ-014138 (plasma proteins; versus SZ-014138): no less than 4 times
12 | C=CC(=O)N1CCN(c2nc(=O)n(-c3c(C(C)C)ncnc3C(C)C)c3c2cc(F)c(-c2c(F)ccc(F)c2O)[n+]3[O-])[C@@H](C)C1 [SZ-014062AB] | 207 |  |  |  | 
13 | C=CC(=O)N1CCN(c2nc(=O)n(-c3c(C(C)C)cccc3C(C)C)c3nc(-c4ccccc4)c(F)cc23)[C@@H](C)C1 [SZ-014142, reference compound] | 296 | 0.002 | 0.008 | 0.047 | 
14 | C=CC(=O)N1CCN(c2nc(=O)n(-c3c(C)ccnc3C(C)C)c3c2cc(F)c(-c2ccccc2O)[n+]3[O-])[C@@H](C)C1 [SZ-014010A/B] | 442 |  |  |  | Binding rate to KRAS G12C protein (LC-MS POC, %) 3 uM/5 min [1]: 47.7%; Binding rate to KRAS G12C protein (LC-MS POC, %) 3 uM/30 min [1]: 84.9%
15 | C=CC(=O)N1CCN(c2nc(=O)n(-c3c(C(C)C)cccc3C(C)C)c3c2cc(Cl)c(-c2c(O)cccc2F)[n+]3[O-])[C@@H](C)C1 [SZ-014116AB] | 2.8 |  |  |  | 
16 | C=CC(=O)N1CCN(c2nc(=O)n(-c3c(C(C)C)ncnc3C(C)C)c3c2cc(F)c(-c2cccc4ccccc24)[n+]3[O-])[C@@H](C)C1 [SZ-014013A/B] | 36 |  |  |  | 
17 | C=CC(=O)N1CCN(c2nc(=O)n(-c3c(C(C)C)ncnc3C(C)C)c3c2cc(Cl)c(-c2ccccc2O)[n+]3[O-])[C@@H](C)C1 [SZ-014031A] | 11.4 |  |  |  | 
18 | C=CC(=O)N1CCN(c2nc(=O)n(-c3c(C(C)C)cccc3C(C)C)c3c2cc(F)c(-c2ccccc2)[n+]3[O-])[C@@H](C)C1 [SZ-014130] | 139 | 0.074 | 0.188 | 0.039 | molar concentration not bound to plasma proteins, times higher than reference compound SZ-014142 (plasma proteins; versus SZ-014142): no less than 30 times
19 | [2H]c1c([2H])c([2H])c(-c2c(F)cc3c(N4CCN(C(=O)C=C)C[C@@H]4C)nc(=O)n(-c4c(C(C)C)ncnc4C(C)C)c3[n+]2[O-])c(O)c1[2H] [SZ-014051A/B] | 44 |  |  |  | 
20 | C=CC(=O)N1CCN(c2nc(=O)n(-c3c(C(C)C)ncnc3C(C)C)c3nc(-c4ccccc4)c(F)cc23)[C@@H](C)C1 [SZ-014141, reference compound] | 170 | 0.04 | 0.127 | 0.008 | 
21 | C=CC(=O)N1CCN(c2nc(=O)n(-c3c(C)ccnc3C(C)C)c3c2cc(F)c(-c2c(O)cccc2F)[n+]3[O-])[C@@H](C)C1 [SZ-014089A/B] | 143 |  |  |  | 
22 | C=CC(=O)N1CCN(c2nc(=O)n(-c3c(C)ccnc3C(C)C)c3nc(-c4c(O)cccc4F)c(F)cc23)[C@@H](C)C1 [SZ-014004A, reference compound] | 12 | 0.068 | 0.145 | 0.112 | 
23 | C=CC(=O)N1CCN(c2nc(=O)n(-c3c(C(C)C)ncnc3C(C)C)c3c2cc(F)c(-c2cccc(F)c2O)[n+]3[O-])[C@@H](C)C1 [SZ-014043] | 494 |  |  |  | Binding rate to KRAS G12C protein (LC-MS POC, %) 3 uM/5 min [1]: 58.5%; Binding rate to KRAS G12C protein (LC-MS POC, %) 3 uM/30 min [1]: 90.0%
24 | C=CC(=O)N1CCN(c2nc(=O)n(-c3c(C(C)C)cccc3C(C)C)c3nc(-c4c(F)cccc4F)c(F)cc23)[C@@H](C)C1 [SZ-014139, reference compound] | 81 | 0.015 | 0.022 | 0.007 | 
25 | C=CC(=O)N1CCN(c2nc(=O)n(-c3c(CC)ncnc3CC)c3c2cc(F)c(-c2c(F)cccc2F)[n+]3[O-])[C@@H](C)C1 [SZ-014119] | 691 |  |  |  | Binding rate to KRAS G12C protein (LC-MS POC, %) 3 uM/5 min [1]: 20.8%; Binding rate to KRAS G12C protein (LC-MS POC, %) 3 uM/30 min [1]: 79.2%
